Measured values as given in ChEMBL document CHEMBL1153832, “Identification and characterization of UK-201844, a novel inhibitor that interferes with human immunodeficiency virus type 1 gp160 processing” (Antimicrob Agents Chemother, 2007).
Activity calls are given as the source filed them. No cut-off for these calls is given here.

Columns and labels:
[1] = system: Human immunodeficiency virus 1; test: Antiviral activity against recombinant HIV1 NL4-3 bearing envelope with S162N, N302Y, G354E, V372E, D474N substitutions infected in human MT2 cells by virus production assay; format: functional, organism-based
[2] = system: Human immunodeficiency virus 1; test: Ratio of EC50 for recombinant HIV1 NL4-3 bearing envelope with D474N substitution to EC50 for parental HIV1 NL4-3; format: functional
[3] = target: T1, Proprotein convertase subtilisin/kexin type 6 (Rattus norvegicus) (UniProt Q63415); test: Inhibition of rat PACE4 up to 100 uM
T1 sequence (whole entry): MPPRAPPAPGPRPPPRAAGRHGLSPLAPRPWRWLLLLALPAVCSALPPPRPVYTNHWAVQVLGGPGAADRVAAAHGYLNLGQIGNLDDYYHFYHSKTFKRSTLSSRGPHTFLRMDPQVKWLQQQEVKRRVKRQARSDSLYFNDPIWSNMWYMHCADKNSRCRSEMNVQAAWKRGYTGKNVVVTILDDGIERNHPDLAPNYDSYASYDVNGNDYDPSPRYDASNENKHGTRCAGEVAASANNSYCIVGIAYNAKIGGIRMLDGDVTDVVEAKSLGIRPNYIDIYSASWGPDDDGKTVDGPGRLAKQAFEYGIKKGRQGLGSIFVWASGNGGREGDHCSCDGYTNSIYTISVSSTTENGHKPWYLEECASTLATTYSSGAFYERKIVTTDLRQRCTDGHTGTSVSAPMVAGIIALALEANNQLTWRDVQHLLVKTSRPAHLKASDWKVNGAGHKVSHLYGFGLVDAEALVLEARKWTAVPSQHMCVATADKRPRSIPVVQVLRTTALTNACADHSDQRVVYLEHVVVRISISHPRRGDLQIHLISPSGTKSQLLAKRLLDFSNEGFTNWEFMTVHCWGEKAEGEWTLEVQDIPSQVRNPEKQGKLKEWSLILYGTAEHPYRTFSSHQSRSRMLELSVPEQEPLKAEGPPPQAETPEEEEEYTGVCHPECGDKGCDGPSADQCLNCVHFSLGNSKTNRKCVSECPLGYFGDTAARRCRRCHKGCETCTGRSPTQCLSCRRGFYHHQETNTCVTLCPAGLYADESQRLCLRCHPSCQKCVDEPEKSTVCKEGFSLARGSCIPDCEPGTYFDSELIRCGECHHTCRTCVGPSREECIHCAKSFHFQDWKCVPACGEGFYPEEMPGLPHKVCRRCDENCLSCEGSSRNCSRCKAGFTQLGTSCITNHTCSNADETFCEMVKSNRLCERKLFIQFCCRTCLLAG

[4] = system: Human immunodeficiency virus 1; test: Antiviral activity against HIV1 NL4-3 infected in human MT2 cells assessed as inhibition of virus-induced cytopathic effect after 6 days by XTT assay; format: functional, organism-based; settings: Human immunodeficiency virus 1, NL4-3, MT2, 144 h
[5] = system: Human immunodeficiency virus 1; test: Ratio of EC50 for recombinant HIV1 NL4-3 bearing envelope with S162N, N302Y, G354E, V372E, D474N substitutions to EC50 for parental HIV1 NL4-3; format: functional
[6] = system: Human immunodeficiency virus 1; test: Antiviral activity against recombinant HIV1 NL4-3 bearing envelope with V372E substitution infected in human MT2 cells by virus production assay; format: functional, organism-based
[7] = system: Human immunodeficiency virus 1; test: Antiviral activity against HIV1 NL4/3BFL chimeric virus transfected in HEK293 cells assessed as inhibition of viral envelope gp160/gp120 processing at 15 uM by Western blot; format: functional; settings: Human immunodeficiency virus 1, NL4/3BFL
[8] = system: Human immunodeficiency virus 1; test: Antiviral activity against HIV1 NL4-3 infected in human MT2 cells assessed as inhibition of viral p24 antigen level at 15 uM by Western blot; format: functional; settings: Human immunodeficiency virus 1, NL4-3, MT2
[9] = system: Human immunodeficiency virus 1; test: Antiviral activity against HIV1 bearing HIV1 NL4-3 envelope infected in human MT2 cells assessed as inhibition of HIV-envelope packed virions at 15 uM after 72 hrs by virus production assay relative to control; format: functional; settings: Human immunodeficiency virus 1, MT2, 72 h
[10] = Therapeutic index, ratio of CC50 for human MT2 cells to EC50 for HIV1 NL4-3; format: cell-based; settings: read-out: TI
[11] = system: Human immunodeficiency virus 1; test: Antiviral activity against recombinant HIV1 NL4/3BCt chimeric virus infected in human MT2 cells assessed as inhibition of virus-induced CPE; format: functional, organism-based; settings: Human immunodeficiency virus 1, NL4/3BCt
[12] = system: Human immunodeficiency virus 1; test: Antiviral activity against HIV1 3B infected in human MT2 cells assessed as inhibition of virus-induced cytopathic effect after 6 days by XTT assay; format: functional, organism-based; settings: Human immunodeficiency virus 1, 3B, MT2, 144 h
[13] = system: Human immunodeficiency virus 1; test: Antiviral activity against HIV1 bearing HIV1 NL4-3 envelope infected in human HeLa CD4 cells coexpressing LTR/beta-Gal gene assessed as reduction in virus-induced beta-galactosidase reporter gene activity after 72 hrs by single-cycle infection assay; format: functional, organism-based; settings: Human immunodeficiency virus 1, HeLa
[14] = system: Human immunodeficiency virus 1; test: Antiviral activity against recombinant HIV1 NL4-3 bearing envelope with G354E, D474N substitutions infected in human MT2 cells by virus production assay; format: functional, organism-based
[15] = system: Human immunodeficiency virus 1; test: Ratio of EC50 for recombinant HIV1 NL4-3 bearing envelope with V372E substitution to EC50 for parental HIV1 NL4-3; format: functional
[16] = system: Human immunodeficiency virus 1; test: Antiviral activity against HIV1 NL4-3 infected in human CEM-SS cells; format: functional, organism-based
[17] = system: Human immunodeficiency virus 1; test: Antiviral activity against recombinant HIV1 NL4/3B5'Env chimeric virus infected in human MT2 cells assessed as inhibition of virus-induced CPE; format: functional, organism-based; settings: Human immunodeficiency virus 1, NL4/3B5'Env
[18] = system: Human immunodeficiency virus 1; test: Ratio of EC50 for recombinant HIV1 NL4-3 bearing envelope with S162N, N302Y substitutions to EC50 for parental HIV1 NL4-3; format: functional
[19] = system: Human immunodeficiency virus 1; test: Antiviral activity against recombinant HIV1 NL4/3BFL chimeric virus infected in human MT2 cells assessed as inhibition of virus-induced CPE; format: functional, organism-based; settings: Human immunodeficiency virus 1, NL4/3BFL
[20] = system: Human immunodeficiency virus 1; test: Antiviral activity against recombinant HIV1 NL4-3 bearing envelope with G354E, V372E, D474N substitutions infected in human MT2 cells by virus production assay; format: functional, organism-based
[21] = system: Human immunodeficiency virus 1; test: Antiviral activity against HIV1 NL4-3 transfected in HEK293 cells assessed as inhibition of viral envelope gp160 processing at 15 uM by Western blot; format: functional; settings: Human immunodeficiency virus 1, NL4-3, HEK293
[22] = system: Human immunodeficiency virus 1; test: Antiviral activity against HIV1 bearing VSV envelope infected in human MT2 cells assessed as inhibition of VSV-envelope packed virions at 15 uM after 72 hrs by virus production assay relative to control; format: functional; settings: Human immunodeficiency virus 1, MT2, 72 h
[23] = system: Human immunodeficiency virus 1; test: Antiviral activity against HIV1 NL4-3 transfected in HEK293 cells assessed as inhibition of viral envelope gp160 processing at 1.0 uM by Western blot; format: functional; settings: Human immunodeficiency virus 1, NL4-3, HEK293
[24] = system: Human immunodeficiency virus 1; test: Ratio of EC50 for recombinant HIV1 NL4-3 bearing envelope with G354E substitution to EC50 for parental HIV1 NL4-3; format: functional
[25] = system: Human immunodeficiency virus 1; test: Antiviral activity against HIV1 NL4-3 infected in human CEM-T4 cells; format: functional, organism-based
[26] = system: Human immunodeficiency virus 1; test: Inhibition of HIV1 NL4-3 proteins incorporation into virions transfected in HEK293 cells assessed as unprocessed gp160 Env protein at 15 uM by Western blot; format: functional, organism-based
[27] = system: Human immunodeficiency virus 1; test: Ratio of EC50 for recombinant HIV1 NL4-3 bearing envelope with G354E, V372E, D474N substitutions to EC50 for parental HIV1 NL4-3; format: functional
[28] = system: Human immunodeficiency virus 1; test: Ratio of EC50 for recombinant HIV1 NL4-3/3BNt chimeric virus to EC50 for parental HIV1 NL4-3 virus; format: functional
[29] = system: Human immunodeficiency virus 1; test: Inhibition of HIV1 NL4-3 proteins incorporation into virions transfected in HEK293 cells assessed as aberrant Env protein at 15 uM by Western blot; format: functional, organism-based
[30] = system: Human immunodeficiency virus 1; test: Antiviral activity against HIV1 Ba-L infected in human PM1 cells assessed as inhibition of viral p24 antigen production after 5 days; format: functional, organism-based; settings: Human immunodeficiency virus 1, Ba-L, PM1, 120 h

NC(=O)C(c1ccccc1)(c1ccccc1)[C@H]1CCCN(CCc2ccc3c(c2)CCO3)C1
EC50 [1]: > 32 µM
fold change (FC) [2]: 6
Activity [3]: inactive
EC50 [4]: 1.3 µM
fold change (FC) [5]: >31
EC50 [6]: 0.9 µM
inhibition at 15 µM [7]: 2%
inhibition at 15 µM [8]: 100%
inhibition in vivo at 15 µM [9]: 99.5%
selectivity ratio [10]: 41
EC50 [11]: 5.3 µM
EC50 [12]: 32 µM
EC50 [13]: > 32 µM
EC50 [14]: > 32 µM
fold change (FC) [15]: 0.9
EC50 [16]: Active
EC50 [17]: > 32 µM
fold change (FC) [18]: 8.3
EC50 [19]: > 32 µM
EC50 [20]: > 32 µM
inhibition at 15 µM [21]: 100%
inhibition in vivo at 15 µM [22]: -6%
inhibition at 1 µM [23]: 44%
fold change (FC) [24]: 0.9
EC50 [25]: Active
Activity [26]: Active
fold change (FC) [27]: >31
fold change (FC) [28]: 1
Activity [29]: Active
EC50 [30]: 24 µM
